Source: ChEMBL document CHEMBL5050844 (2019)

How the values were obtained:
[1] = Induction of anti-CD3/CD28 antibodies-stimulated human T cell activation at 1 uM assessed fold increase in CD25 expression measured by ELISA assay; assay type: functional, T cell line
[2] = Induction of anti-CD3/CD28 antibodies-stimulated human T cell activation at 0.3 uM assessed fold increase in IL-2 secretion measured by ELISA assay; assay type: functional, T cell line
[3] = molecular target: E3 ubiquitin-protein ligase CBL-B (Homo sapiens, UniProt Q13191); test: Inhibition of N-terminal Avi-tagged human CBL-B (36 to 427 residues) incubated with 60 nM Src kinase for 1.5 hrs followed by incubation with fluorescently labeled UbcH5B-Ub for 1 hr and measured by TR-FRET assay; assay type: single protein
Chain of E3 ubiquitin-protein ligase CBL-B (Q13191 whole entry, the tested form may be a part): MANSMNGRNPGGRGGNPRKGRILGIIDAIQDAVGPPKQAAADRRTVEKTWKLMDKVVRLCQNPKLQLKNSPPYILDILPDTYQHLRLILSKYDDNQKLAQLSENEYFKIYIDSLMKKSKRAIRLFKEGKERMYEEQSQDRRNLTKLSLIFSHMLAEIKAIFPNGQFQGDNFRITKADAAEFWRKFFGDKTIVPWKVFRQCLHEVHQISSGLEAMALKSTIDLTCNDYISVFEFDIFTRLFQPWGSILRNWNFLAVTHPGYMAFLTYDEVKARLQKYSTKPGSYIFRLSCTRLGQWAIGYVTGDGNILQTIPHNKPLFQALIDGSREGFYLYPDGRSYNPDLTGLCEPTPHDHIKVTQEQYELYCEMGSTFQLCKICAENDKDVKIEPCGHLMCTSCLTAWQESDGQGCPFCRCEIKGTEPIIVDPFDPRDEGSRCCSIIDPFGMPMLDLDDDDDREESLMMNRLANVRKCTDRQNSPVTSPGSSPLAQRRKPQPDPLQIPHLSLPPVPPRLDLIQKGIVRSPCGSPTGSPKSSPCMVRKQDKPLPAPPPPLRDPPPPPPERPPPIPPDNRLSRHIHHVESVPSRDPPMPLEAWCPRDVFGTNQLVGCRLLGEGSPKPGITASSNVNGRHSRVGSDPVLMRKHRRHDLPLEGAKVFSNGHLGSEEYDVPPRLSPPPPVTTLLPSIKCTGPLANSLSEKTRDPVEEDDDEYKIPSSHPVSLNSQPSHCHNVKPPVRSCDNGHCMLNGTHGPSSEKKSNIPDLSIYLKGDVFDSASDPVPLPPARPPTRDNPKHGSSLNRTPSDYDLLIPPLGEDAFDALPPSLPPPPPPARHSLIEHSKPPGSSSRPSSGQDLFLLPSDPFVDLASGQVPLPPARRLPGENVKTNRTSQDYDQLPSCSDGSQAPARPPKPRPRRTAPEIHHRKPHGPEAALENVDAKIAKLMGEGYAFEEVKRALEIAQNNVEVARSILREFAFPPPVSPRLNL

[4] = Induction of anti-CD3/CD28 antibodies-stimulated human T cell activation at 1 uM assessed fold increase in IL-2 secretion measured by ELISA assay; assay type: functional, T cell line
[5] = Induction of anti-CD3 antibodies-stimulated human T cell activation at 1 uM assessed fold increase in CD25 expression measured by ELISA assay; assay type: functional, T cell line; also: reference of the scale not given here
[6] = Induction of anti-CD3/CD28 antibodies-stimulated human T cell activation at 0.3 uM assessed fold increase in CD25 expression measured by ELISA assay; assay type: functional, T cell line
[7] = Induction of anti-CD3 antibodies-stimulated human T cell activation at 1 uM assessed fold increase in IL-2 secretion measured by ELISA assay; assay type: functional, T cell line; also: reference of the scale not given here

IC50 [3] [nM]	Structure (SMILES)	fold change (FC) [1]	fold change (FC) [2]	fold change (FC) [4]	fold change (FC) [5]	fold change (FC) [6]	fold change (FC) [7]	fold change (FC) ([1]; 1 µM)	fold change (FC) ([6]; 0.3 µM)	FC [1]	FC [2]	FC [4]	FC [5]	FC [6]	FC [7]
< 100	Cn1cnnc1CC1(c2cccc(N3Cc4c(cc(N5CC(C(F)F)C5)nc4C4CC4)C3=O)c2)COC1	1.01	2.51	5	0.801	1.01	0.101	–	–	–	–	–	–	–	–
< 100	COc1ccc2c(c1)CN(Cc1cc3c(c(C(F)(F)F)c1)CN(c1cccc(C4(Cc5nncn5C)COC4)c1)C3=O)C2	1.31	>=7.5	>=7.5	>=1.001	1.31	>=0.201	–	–	–	–	–	–	–	–
< 100	Cn1cnnc1CC1(c2cccc(N3Cc4c(cc(N5CCOC5=O)cc4C(F)(F)F)C3=O)c2)COC1	1.01	1.01	2.51	0.601	1.01	<=0.05	–	–	–	–	–	–	–	–
< 100	Cc1cc(C(=O)Nc2cccc(C3(C(F)(F)c4nncn4C)COC3)c2)nc(C2CC2)n1	1.31	2.51	5	0.801	1.01	0.101	–	–	–	–	–	–	–	–
≤ 300	Cc1c[nH]nc1-c1cc([C@H](C)Cc2nncn2C)cc(N2Cc3c(cccc3C(F)(F)F)C2=O)n1	1.01	1.01	1.01	<=0.6	1.01	0.051	–	–	–	–	–	–	–	–
< 100	CC(O)c1cc2c(c(C(F)(F)F)c1)CN(c1cccc(C3(Cc4nncn4C)COC3)c1)C2=O (stereo unspecified)	1.01	1.01	2.51	>=1.001	1.01	0.151	–	–	–	–	–	–	–	–
< 100	Cn1cnnc1CC1(c2cccc(N3Cc4c(cc(C5CCC5)cc4C(F)(F)F)C3=O)c2)COC1	1.31	2.51	2.51	0.801	1.01	0.101	–	–	–	–	–	–	–	–
< 100	Cn1cnnc1CC1(c2cccc(N3Cc4c(cc(CN5CC[C@@H]6C[C@@H]65)cc4C(F)(F)F)C3=O)c2)COC1	1.51	>=7.5	>=7.5	>=1.001	1.51	>=0.201	–	–	–	–	–	–	–	–
< 100	CN1C[C@@H]2C[C@H]1CN2c1cc2c(c(C(F)(F)F)c1)CN(c1cccc(C3(Cc4nncn4C)COC3)c1)C2=O (single isomer, unassigned)	1.31	>=7.5	>=7.5	>=1.001	1.31	>=0.201	–	–	–	–	–	–	–	–
< 100	Cn1cnnc1CC1(c2cccc(NC(=O)c3[nH]nc4c3OCCC4)c2)COC1	1.01	1.01	1.01	0.601	1.01	0.051	–	–	–	–	–	–	–	–
< 100	C[C@@H](c1cc2c(c(C(F)(F)F)c1)CN(c1cccc(C3(C(F)(F)c4nncn4C)COC3)c1)C2=O)N1CC[C@H](F)C1	1.51	2.51	>=7.5	>=1.001	1.31	>=0.201	–	–	–	–	–	–	–	–
< 100	C[C@H](c1cc2c(c(C(F)(F)F)c1)CN(c1cccc(C3(Cc4nncn4C)COC3)c1)C2=O)N1CC(C)(F)C1	1.51	5	>=7.5	>=1.001	1.51	>=0.201	–	–	–	–	–	–	–	–
< 100	Cn1cnnc1CC1(c2cccc(N3Cc4c(cc(OC5CC5)cc4C(F)(F)F)C3=O)c2)COC1	1.01	1.01	2.51	>=1.001	1.01	0.151	–	–	–	–	–	–	–	–
< 100	Cn1cnnc1CC1(c2cccc(N3Cc4c(cc(CN5CCC(C)(F)C5)cc4C(F)(F)F)C3=O)c2)COC1 (stereo unspecified)	1.31	>=7.5	>=7.5	>=1.001	1.31	>=0.201	–	–	–	–	–	–	–	–
< 100	Cn1cnnc1CC1(c2cccc(N3Cc4c(cc(N5CCN6CCC[C@@H]6C5)cc4C(F)(F)F)C3=O)c2)COC1	>=1.76	>=7.5	>=7.5	>=1.001	>=1.76	>=0.201	–	–	–	–	–	–	–	–
< 100	COC1CCN(Cc2cc3c(c(C(F)(F)F)c2)CN(c2cccc(C4(Cc5nncn5C)COC4)c2)C3=O)CC1	1.51	>=7.5	>=7.5	>=1.001	1.31	>=0.201	–	–	–	–	–	–	–	–
< 100	Cc1cc2c(c(C3CC3)n1)CN(c1cccc(C3(C(F)(F)c4nncn4C)COC3)c1)C2=O	1.01	1.01	1.01	0.601	1.01	0.051	–	–	–	–	–	–	–	–
< 100	Cn1cnnc1CC1(c2cccc(N3Cc4c(cc(C5=CCCOC5)cc4C(F)(F)F)C3=O)c2)COC1	–	–	–	–	–	–	–	–	1.01	2.51	2.51	0.801	1.01	0.101
< 100	Cn1cnnc1CC1(c2cccc(N3Cc4c(cc(CN5CC6C(C5)C6(F)F)cc4C(F)(F)F)C3=O)c2)COC1 (stereo unspecified)	1.31	5	>=7.5	>=1.001	1.31	>=0.201	–	–	–	–	–	–	–	–
< 100	Cc1cc(C(=O)Nc2cccc(C3(Cc4nocc4C)COC3)c2)nc(C2CC2)n1	1.31	>=7.5	>=7.5	>=1.001	1.31	>=0.201	–	–	–	–	–	–	–	–
< 100	Cn1cnnc1CC1(c2cccc(N3Cc4c(cc(OC5CNC5)cc4C(F)(F)F)C3=O)c2)COC1	1.01	1.01	1.01	0.801	1.01	0.051	–	–	–	–	–	–	–	–
< 100	Cn1cnnc1CC1(c2cccc(N3Cc4c(cc(CN5Cc6cccc(F)c6C5)cc4C(F)(F)F)C3=O)c2)COC1	1.31	2.51	>=7.5	>=1.001	1.31	>=0.201	–	–	–	–	–	–	–	–
< 100	C[C@@H](c1cc2c(c(C(F)(F)F)c1)CN(c1cccc(C3(Cc4nncn4C)COC3)c1)C2=O)N1CCC2(CC1)CC2	1.01	>=7.5	>=7.5	>=1.001	1.01	>=0.201	–	–	–	–	–	–	–	–
< 100	Cn1cnnc1CC1(c2cccc(N3Cc4c(cc(N5CCNC6(CC6)C5)cc4C(F)(F)F)C3=O)c2)COC1	1.31	>=7.5	>=7.5	>=1.001	1.31	0.101	–	–	–	–	–	–	–	–
< 100	Cn1cnnc1CC1(c2cccc(NC(=O)c3cc(C4CC4)nc4ccnn34)c2)COC1	1.01	1.01	2.51	0.601	1.01	<=0.05	–	–	–	–	–	–	–	–

Structure (SMILES)	IC50 [3] [nM]	fold change (FC) [1]	fold change (FC) [2]	fold change (FC) [4]	fold change (FC) [5]	fold change (FC) [6]	fold change (FC) [7]	fold change (FC) ([1]; 1 µM)	fold change (FC) ([6]; 0.3 µM)	FC [1]	FC [2]	FC [4]	FC [5]	FC [6]	FC [7]
Cn1cnnc1[C@H](F)C1(c2cccc(N3Cc4c(cc(CN5C6CCCC5CC6)cc4C(F)(F)F)C3=O)c2)COC1 (stereo in doubt; 671b)	< 100	–	>=7.5	>=7.5	>=1.001	–	>=0.201	>=1.76	>=1.76	–	–	–	–	–	–
CN1C[C@H]2CC[C@@H](C1)N2c1cc(C(=O)Nc2cccc(C3(Cc4nncn4C)COC3)c2)nc(C2CC2)n1	< 100	1.51	5	>=7.5	>=1.001	1.31	>=0.201	–	–	–	–	–	–	–	–
CN1C2CCC1CN(c1cc3c(c(C(F)(F)F)c1)CN(c1cccc(C4(Cc5nncn5C)COC4)c1)C3=O)C2	< 100	1.01	2.51	5	>=1.001	1.01	0.151	–	–	–	–	–	–	–	–
